# Assay results as given in ChEMBL document CHEMBL6074643, “Harnessing dual-mode RIPK1 ligands for cross-species anti-necroptosis inhibitor compounds” (Bioorg Med Chem Lett, 2024).
# pKi: −log10 of the molar value. The source made the active and inactive calls. The rule behind the calls is not given here.
# Key:
# [1] = target: T1, Receptor-interacting serine/threonine-protein kinase 1 (Homo sapiens, UniProt Q13546); assay: Inhibition of human RIPK1 by ADP-Glo kinase assay
# T1 sequence (Q13546 whole entry): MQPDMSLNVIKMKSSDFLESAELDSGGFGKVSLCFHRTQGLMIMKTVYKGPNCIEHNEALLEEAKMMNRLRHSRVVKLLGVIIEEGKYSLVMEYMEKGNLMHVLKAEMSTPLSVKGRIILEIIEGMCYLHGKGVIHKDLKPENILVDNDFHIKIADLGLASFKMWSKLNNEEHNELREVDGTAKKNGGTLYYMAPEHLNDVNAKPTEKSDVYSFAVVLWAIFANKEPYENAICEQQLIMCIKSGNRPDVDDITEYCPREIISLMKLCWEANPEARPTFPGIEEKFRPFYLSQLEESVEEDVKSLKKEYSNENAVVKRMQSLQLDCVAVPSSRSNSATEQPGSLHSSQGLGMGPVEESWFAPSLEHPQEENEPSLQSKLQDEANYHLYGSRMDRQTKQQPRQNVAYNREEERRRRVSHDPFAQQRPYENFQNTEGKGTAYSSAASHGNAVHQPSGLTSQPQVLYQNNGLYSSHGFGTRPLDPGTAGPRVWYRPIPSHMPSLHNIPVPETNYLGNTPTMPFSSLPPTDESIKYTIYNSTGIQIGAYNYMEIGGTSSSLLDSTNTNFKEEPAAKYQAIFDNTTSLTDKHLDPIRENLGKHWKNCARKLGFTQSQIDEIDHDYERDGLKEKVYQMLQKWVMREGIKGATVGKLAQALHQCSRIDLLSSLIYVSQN
# [2] = Intrinsic clearance in mouse liver microsomes measured per mg protein; format: ADME, Microsome; conditions: read-out: CLH
# [3] = Intrinsic clearance in human liver microsomes measured per mg protein; format: ADME, Microsome; conditions: read-out: CLH
# [4] = Plasma concentration in non-fasted NMRI mouse at 10 mg/kg, po measured after 0.5 hrs by HPLC-MS analysis; format: ADME, organism-based
# Mus musculus = assay: In vivo inhibition of RIPK1 in TNF-alpha-induced acute hypothermia NMRI mouse model assessed as decrease in TNF-alpha-induced severe core body temperature loss at 30 mg/kg, po administered 15 mins prior to TNF-alpha challenge and measured at 90 mins interval for 6 hrs; format: functional, organism-based; conditions: time 375.0 min
# [5] = Plasma concentration in non-fasted NMRI mouse at 10 mg/kg, po measured after 2 hrs by HPLC-MS analysis; format: ADME, organism-based
pKi [1],microsomal CLint [2],microsomal CLint [3],concentration at 0.5 h [4],concentration at 2 h [5],SMILES,inhibition (Mus musculus)
7.06,211 µL/min/mg,75.7 µL/min/mg,–,–,CN1C(=O)C(C(=O)Nc2cn(Cc3ccccc3)cn2)CCc2ccc(Br)cc21 (configuration not stated),–
7.12,693 µL/min/mg,99 µL/min/mg,–,–,CC(C)C#Cc1ccc2c(c1)N(C)C(=O)C(C(=O)Nc1cn(Cc3ccccc3)cn1)CC2 (configuration not stated),–
7.42,128 µL/min/mg,44.4 µL/min/mg,–,–,CN1C(=O)C(C(=O)Nc2cn(Cc3ccccc3)cn2)CCc2ccc(C#CC3(O)COC3)cc21 (configuration not stated),–
7.18,50.8 µL/min/mg,21.1 µL/min/mg,–,–,CN1C(=O)C(C(=O)Nc2cn(Cc3ccccc3)cn2)CCc2ccc(C#CC(C)(C)N)cc21 (configuration not stated),–
7.65,234 µL/min/mg,106 µL/min/mg,–,–,CN1C(=O)C(C(=O)Nc2cn(Cc3ccccc3)cn2)CCc2ccc(C#CC3CCOCC3)cc21 (configuration not stated),–
6.60,29.4 µL/min/mg,6.6 µL/min/mg,–,–,CN1C(=O)C(C(=O)Nc2cn(Cc3ccccc3)cn2)CCc2cc(C#CC(C)(C)O)ccc21 (configuration not stated),–
8.70,–,–,–,–,CN1C(=O)[C@@H](NC(=O)c2nnc(Cc3ccccc3)[nH]2)COc2cccnc21 [ECLITASERTIB],–
7.55,238 µL/min/mg,124 µL/min/mg,–,–,CN1C(=O)C(C(=O)Nc2cn(Cc3ccccc3)cn2)CCc2ccc(C#CC3(C)COC3)cc21 (configuration not stated),–
7.94,33 µL/min/mg,7.6 µL/min/mg,1340 nM,329 nM,CN1C(=O)[C@@H](C(=O)Nc2cn(Cc3ccccc3)cn2)CCc2ccc(C#CC(C)(C)O)cc21,Active
7.54,300 µL/min/mg,66.5 µL/min/mg,–,–,CN1C(=O)C(C(=O)Nc2cn(Cc3ccccc3)cn2)CCc2ccc(C#CC3CC3)cc21 (configuration not stated),–
7.45,312 µL/min/mg,105 µL/min/mg,–,–,CC#Cc1ccc2c(c1)N(C)C(=O)C(C(=O)Nc1cn(Cc3ccccc3)cn1)CC2 (configuration not stated),–
6.44,176 µL/min/mg,31.1 µL/min/mg,–,–,CN1C(=O)C(C(=O)Nc2cn(Cc3ccccc3)cn2)CCc2cc(Br)ccc21 (configuration not stated),–
6.40,202 µL/min/mg,32.7 µL/min/mg,–,–,CN1C(=O)[C@H](C(=O)Nc2cn(Cc3ccccc3)cn2)CCc2ccc(C#CC(C)(C)O)cc21,–
7.56,29 µL/min/mg,7.7 µL/min/mg,–,–,CC(=O)NC(C)(C)C#Cc1ccc2c(c1)N(C)C(=O)C(C(=O)Nc1cn(Cc3ccccc3)cn1)CC2 (configuration not stated),–
6.72,42.2 µL/min/mg,18.2 µL/min/mg,–,–,CN1C(=O)C(C(=O)Nc2cn(Cc3ccccc3)cn2)CCc2cc(C#CC3(O)COC3)ccc21 (configuration not stated),–
7.59,210 µL/min/mg,194 µL/min/mg,–,–,COC(C)(C)C#Cc1ccc2c(c1)N(C)C(=O)C(C(=O)Nc1cn(Cc3ccccc3)cn1)CC2 (configuration not stated),–
7.23,158 µL/min/mg,26.5 µL/min/mg,–,–,CN1C(=O)C(C(=O)Nc2cn(Cc3ccccc3)cn2)CCc2ccc(C#CC(C)(C)O)cc21 (racemic),–
